From paper PMC3684613 (PLoS ONE, 2013)
Read-outs that look alike come from different tables or passages of the source.

Key:
[1] = system: P. falciparum 3D7; set-up: method as in ChEMBL-NTD; conditions: ref ChEMBL-NTD, cited from earlier work
[2] = system: P. falciparum 3D7; assay: DAPI stain fluorescent high content imaging assay, P. falciparum 3D7 (confirmatory screen, Avery); conditions: Plasmodium falciparum; for EC50: 3D7, read-out: EC50_nM; for inhibition of growth at 5 µM: 3D7, read-out: percent_inh @ 5 uM
[3] = values follow the order of the source (GNF; GSK; StJude)
[4] = original screening data, source (GSK, GNF, StJude), several values separated by ';' in order of sources

Compound	EC50 [2] [nM]	inhibition of growth at 5 µM [2] [%]	other results
O=C(Nc1ccc(-c2nc3ccccc3[nH]2)cc1)c1ccc(Cl)c(Cl)c1 [MMV665840]	838	97	EC50 [1, 3]: 523 nM
CCCc1cc(O)c2c3c(c(=O)oc2c1)CN(C)CC3 [MMV665841]	146	97	EC50 ([1]; source GNF (GNF-Pf id)): 554 nM; EC50 ([1]; source GSK (TCMDC id)): 873 nM
Oc1c2c(nc3ccccc13)CCCC2 [MMV665843]		82	EC50 [1, 4]: 628 nM
Oc1ccc(Cl)cc1CNc1nc2ccccc2[nH]1 [MMV665850]		95	EC50 ([1]; source GNF): 921 nM
O=C(Nc1ccc(Cl)c(Cl)c1)Nc1ccc(Cl)c(Cl)c1 [MMV665852]	1160	96	EC50 [1, 3]: 1030 nM
CCOc1c(Cl)cc(CNC(C)C(O)c2ccccc2)cc1OC (stereo not drawn) [MMV665857]		98	EC50 ([1]; source GNF): 1650 nM
CCCCNc1nc(NC(C)(C)C)nc(NC(C)(C)C)n1 [MMV665864]	706	98	EC50 [1, 3]: 2160 nM
Cc1cc(Nc2ccc(C)c(Cl)c2)n2nc(C(F)(F)F)nc2n1 [MMV665874]	6.71	98	EC50 ([1]; source GSK (TCMDC id)): 15.8 nM
Cn1c(=O)n(C)c2cc(CNCCNc3ccnc4cc(Cl)ccc34)ccc21 [MMV665875]	545	90	EC50 [1, 3]: 140 nM
CCC(c1ccccc1)c1nn2c(-c3cccs3)nnc2s1 (stereo not drawn) [MMV665876]	259	99	EC50 ([1]; source GSK (TCMDC id)): 167 nM
COc1cccc(NC(=O)[C@H](C(C)C)n2c(=O)[nH]c3ccccc3c2=O)c1 [MMV665878]	139	99	EC50 ([1]; source GSK (TCMDC id)): 266 nM
CC(C)(C)C(=O)Nc1ccc(C(=O)Nc2cccc(-c3nc4ccccc4[nH]3)c2)cc1 [MMV665879]		91	EC50 [1, 4]: 282 nM
COc1ccc(CNC(=O)c2cc3c(=O)n4ccccc4nc3n(CCc3ccccc3)c2=N)cc1 [MMV665881]	1060	95	EC50 [1, 3]: 330 nM
OC(CNC1CCCCC1)Cn1c2ccc(I)cc2c2cc(I)ccc21 (stereo not drawn) [MMV665882]	466	97	EC50 [1, 3]: 337 nM
O=C(Nc1cccc(-c2nc3ccccc3[nH]2)c1)c1cccc(NC(=O)c2ccco2)c1 [MMV665883]	745	95	EC50 [1, 4]: 360 nM
CC(Oc1ccc(NC(=O)c2cccs2)cc1)C(=O)c1ccc(Cl)cc1 (stereo not drawn) [MMV665886]	1030	87	EC50 [1, 3]: 774 nM
O=C(Nc1ccccc1O)c1ccc(Oc2cccc(C(=O)Nc3ccccc3O)c2)cc1 [MMV665888]		91	EC50 ([1]; source GSK): 799 nM
COc1ccc(-c2nonc2NC(=O)c2cccc(C)c2)cc1OC [MMV665890]		95	EC50 [1, 4]: 806 nM
c1ccc(-c2ccc(-c3nc4ccccc4[nH]3)cc2)cc1 [MMV665891]	1070	52	EC50 ([1]; source GSK): 809 nM
CC(=O)c1sc(NC(=O)Nc2ccc(C)cc2C)nc1C [MMV665894]	536	64	EC50 [1, 3]: 906 nM
COc1ccc2nc(N)nc(C)c2c1 [MMV665897]		63	EC50 ([1]; source GSK (TCMDC ids)): 927 nM
COc1cc(C(=O)Nc2ccc(-c3nc4ccccc4[nH]3)cc2)cc(OC)c1OC [MMV665898]	1220	95	EC50 [1, 3]: 982 nM
O=C(c1ccccc1F)N(Cc1ccc(Cl)cc1)c1ccccn1 [MMV665899]		59	EC50 ([1]; source GSK): 1020 nM
O=C(Nc1ccc(CN2CCOCC2)cc1)c1ccc(-c2ccc(Br)cc2)o1 [MMV665901]	1360	96	EC50 ([1]; source GSK): 1120 nM

Compound	EC50 [2] [nM]	inhibition of growth at 5 µM [2] [%]	other results
N=c1n(CCN2CCCCC2)c2ccccc2n1CC(O)c1cccc(Br)c1 (stereo not drawn) [MMV665902]	893	98	EC50 ([1]; source GSK): 1140 nM
COCCn1c(C)nc2ccccc2c1=O [MMV665904]		59	EC50 [1, 4]: 1460 nM
Cc1ccc(-c2cc(C(=O)Nc3ccc(S(=O)(=O)N4CCCCC4)cc3)[nH]n2)c(O)c1 [MMV665906]	535	94	EC50 ([1]; source GSK): 1770 nM
COc1ccc(N2CCN(C(CNC(=O)CC(C)(C)C)c3ccc4c(c3)OCO4)CC2)cc1 (stereo not drawn) [MMV665908]		95	EC50 ([1]; source StJude (SJ ids)): 4280 nM
O=C(Nc1nc(-c2ccccn2)cs1)c1ccccc1Br [MMV665909]	1360	97	EC50 ([1]; source StJude): 4530 nM
CCOc1ccc(-c2nc(NC(=O)c3cccc(S(C)(=O)=O)c3)sc2C)cc1 [MMV665913]		95	EC50 ([1]; source StJude): 15000 nM
COc1ccccc1N1CCN(C(CNS(=O)(=O)c2ccc(Cl)cc2)c2cccnc2)CC1 (stereo not drawn) [MMV665914]		93	EC50 ([1]; source StJude): 15000 nM
COc1ccc(-c2nc(NC(=O)CS(=O)(=O)c3ccc(F)cc3)sc2C)cc1 [MMV665915]	448	97	EC50 ([1]; source GNF (GNF-Pf id)): 212 nM; EC50 ([1]; source GSK (TCMDC id)): 243 nM
COc1ccccc1CNC(=O)CCn1c(=O)[nH]c2ccccc2c1=O [MMV665916]	72.6	64	EC50 ([1]; source GNF (GNF-Pf id)): 537 nM
O=C(Nc1ccc(Cl)cc1)N1CCN(c2ccc3nncn3n2)CC1 [MMV665917]		62	EC50 ([1]; source GNF): 2060 nM
O=C(CSc1ccc2nnc(-c3cccc(F)c3)n2n1)Nc1ccc2c(c1)OCO2 [MMV665918]		92	EC50 ([1]; source GNF): 2110 nM
N=c1c2ccccc2nnn1-c1cccc(C(F)(F)F)c1 [MMV665923]		83	EC50 ([1]; source GNF (GNF-Pf ids)): 134 nM
COc1ccc(C(=O)C2CC2c2ccc(Cl)cc2)cc1 (stereo not drawn) [MMV665924]	1060	94	EC50 ([1]; source GNF (GNF-Pf ids)): 217 nM
O=C(CCl)NCCOc1ccc(Cl)cc1Cl [MMV665927]	555	94	EC50 [1, 3]: 538 nM
CCC(C)NCC(O)(c1ccc(Cl)cc1)c1ccc(Cl)cc1 (stereo not drawn) [MMV665928]	642	98	EC50 ([1]; source GNF): 639 nM; EC50 ([1]; source GSK): 843 nM
CCCCNCC(O)(c1ccc(Cl)cc1)c1ccc(Cl)cc1 [MMV665929]	843	97	EC50 ([1]; source GNF): 720 nM
O=C1c2ccccc2-c2nnc(-c3ccc(Br)cc3)cc21 [MMV665934]	1070	99	EC50 ([1]; source GNF (GNF-Pf ids)): 2500 nM
FC(F)(F)c1ccc(Nc2nnnc3ccccc23)cc1 [MMV665935]		77	EC50 ([1]; source GNF): 7720 nM; EC50 ([1]; source GSK): 692 nM
Cc1ccc(S(=O)(=O)c2c(COC(=O)c3cccc(C)c3)c(-c3ccccc3)nn2C)cc1 [MMV665936]		95	EC50 ([1]; source GNF (GNF-Pf ids)): 8400 nM
O=C(Nc1ccsc1C(=O)NC1CCCCC1)c1ccc(F)cc1 [MMV665939]		86	EC50 ([1]; source GSK): 1210 nM
CCOc1ccc(C=Cc2nc(=O)c3ccccc3o2)cc1 [MMV665940]	560	95	EC50 ([1]; source StJude): 188 nM
CN(C)c1ccc(C(O)(c2ccc(N(C)C)cc2)c2ccc(N(C)C)cc2)cc1 [MMV665941]	255	96	EC50 ([1]; source StJude (SJ id)): 620 nM
Nc1ccc(-c2nc3cc(Cc4ccc5[nH]c(-c6ccc(N)cc6)nc5c4)ccc3[nH]2)cc1 [MMV665943]	1420	100	EC50 ([1]; source GNF (GNF-Pf ids)): 243 nM; EC50 ([1]; source GSK (TCMDC ids)): 512 nM; EC50 ([1]; source StJude (SJ ids)): 1080 nM
COc1ccc(CN2CCN(Cc3ccccc3)CC2)c(O)c1 [MMV665944]	1080	96	EC50 ([1]; source StJude (SJ ids)): 1090 nM
